Results published in the NIST ThermoML archive (doi:10.1016/j.fluid.2015.10.047).

Tests used:
[1] = Molar enthalpy of transition or fusion; settings: Crystal; DSC
[2] = Crystal; DTA
[3] = molar heat capacity at constant pressure; settings: 101.33 kPa, Large sample (1 g) DSC

CO[C@H]1O[C@H](CO)[C@@H](O)[C@H](O)[C@H]1O [methyl-α-D-glucopyranoside]
Settings	Molar enthalpy of transition or fusion [kcal/mol]	Normal melting temperature [°C]
[1]	6.7	–
[2]	–	169.18

[3]
Settings	molar heat capacity at constant pressure [J/K/mol]
298.15 K, Crystal	291.48
303.15 K, Crystal	294.68
308.15 K, Crystal	297.16
313.15 K, Crystal	300.15
318.15 K, Crystal	302.5
323.15 K, Crystal	305.37
328.15 K, Crystal	308.34
333.15 K, Crystal	311.81
338.15 K, Crystal	315.04
343.13 K, Crystal	317.77
348.15 K, Crystal	320.54
353.15 K, Crystal	323.46
358.15 K, Crystal	327.84
363.15 K, Crystal	331.47
368.15 K, Crystal	334
373.15 K, Crystal	336.83
378.15 K, Crystal	339.69
383.15 K, Crystal	342.52
388.15 K, Crystal	345.56
393.15 K, Crystal	348.77
398.15 K, Crystal	352.33
403.15 K, Crystal	356.35
408.15 K, Crystal	360.93
413.15 K, Crystal	366.26
418.15 K, Crystal	369.54
423.15 K, Crystal	372.62
428.15 K, Crystal	376.07
433.15 K, Crystal	379.37
453.15 K, Liquid	510.58
458.15 K, Liquid	511.8
463.15 K, Liquid	513
468.15 K, Liquid	514.17
473.15 K, Liquid	515.44
478.15 K, Liquid	516.62
483.15 K, Liquid	517.93
488.15 K, Liquid	519.22
493.15 K, Liquid	520.14
498.15 K, Liquid	521.17
503.15 K, Liquid	522.4
508.15 K, Liquid	523.64
513.15 K, Liquid	524.87
